Earlier results on one substance are cited in US12186420B2, “Compositions and methods of use for treatment or improvement of the condition and appearance of skin” (Quthero, Inc., priority 2020, dated 2025).

The series concerns keratinocyte. As to conditions: in the presence of reactive oxygen species.

Take “QHREDGS [angiopoietin-1 derived peptide]”: the keratinocyte death result is given as “reduce keratinocyte death”.
